Test results reported in publication PMC7773657, “Identification of Compounds With Glucocorticoid Sparing Effects on Suppression of Chemokine and Cytokine Production by Rheumatoid Arthritis Fibroblast-Like Synoviocytes” (Frontiers in Pharmacology, 2020).

Columns and labels:
THP-1 cells = test: TNF stimulated CXCL8 release by THP-1 cells (ELISA); format: cell-based; conditions: Homo sapiens, TNF 2 ng/ml, overnight, single agents (Figure 5A), read-out: IC50 for TNF stimulated CXCL8 release (titration experiment with DEX)
Experimental: THP-1 cells (10^5 cells/200 µL/well) and RA FLS (10^4/200 µL/well) were plated in 96 well plates and pre-treated with compound or vehicle for 1 h and then stimulated with either LPS (10 ng/ml), IL-1ß (2 ng/ml) or TNF (2 ng/ml for THP-1 and 1 ng/ml for RA FLS). After 18 h of incubation, supernatants were collected and the levels of cytokines and chemokines in the culture supernatants were measured by ELISA according to the manufacturer’s protocols (R&D systems, Minneapolis, MN).
Drug synergy analysis was performed using Isobologram plots which were calculated according to reported procedures using methods of Chou-Talalay ([Chou and Talalay, 1984]) to compute IC50 and determine synergism. IC50 is computed from the median effect equation. Synergism analysis is carried out using the Combination index (CI)-isobol method. Data analysis was performed using the CompuSyn software available on combisyn.com. Detailed methodology was used as described in a prior report ([Chou, 2006]). […] This is followed by CI-isobol method to quantitatively assess the synergism between these inhibitor drugs. […] From the median effect equation, the estimated dose (i.e., D) necessary to produce the inhibition (i.e. Fa, Fu) obtained by the combination was calculated. […]

NF-κB = NF-κB activation assay in LPS stimulated CellSensor NF-κB-bla THP-1 reporter cells (FRET); format: cell-based, human; conditions: THP-1 CellSensor NF-κB-bla reporter cells, LPS 10 ng/ml, 5 h and 16 h
Experimental: The CellSensor® NF-κB-bla THP-1 cell line has a stably integrated ß-lactamase reporter gene under the control of the nuclear factor kappa B (NF-κB) response element. […] In the presence of ß-lactamase, CCF4 was enzymatically cleaved and excitation at 409 nm produced a blue fluorescence signal (at 450 nm). The CellSensor® NF-κB-bla THP-1 cells were dispersed in 96-well plates (5 × 10^4 cells/200 µL/well) and incubated for 4 h. […] After incubation, the ß-lactamase substrate mixture (prepared according to the manufacturer’s protocol) was added to each well. Plates were incubated at room temperature in the dark for 2 h. Fluorescence was measured on a Tecan Infinite M200 plate reader (Tecan, Mannedorf, Switzerland) at an excitation wavelength of 405 nm and emission wavelengths of 465 and 535 nm. Emission ratios are calculated by dividing values from emission wavelength of 465 nm by those from emission wavelength of 535 nm. The response ratio was calculated as follows [(emission ratio of a test well)/average emission ratio of wells with vehicle (0.5% DMSO)] and values were normalized to the LPS control treated wells [response ratio of the compound/response ratio of LPS].

| IC50 (THP-1 cells) [µM] | SMILES | Inhibition of LPS induced NF-κB activity (NF-κB) |
| --- | --- | --- |
| 0.3 | C[C@@H]1C[C@H]2[C@@H]3CCC4=CC(=O)C=C[C@]4(C)[C@@]3(F)[C@@H](O)C[C@]2(C)[C@@]1(O)C(=O)CO [DEX, dexamethasone] | inhibited NF-κB activity more potently at 16 h than 5 h |
|  | NC(=O)Nc1sc(-c2ccc(F)cc2)cc1C(N)=O [UTC, 5-(4-fluorophenyl)-2-ureidothiophene-3 carboxylic acid amide] | inhibited NF-κB activity at both time points |
